Source: patent US8765712B2, “Agent for preventing and treating pityriasis versicolor” (Justus-Liebig-Universitaet Giessen, priority 2009, dated 2014)
Entries after “also recorded” stand apart in the source; their conditions may differ.

Key:
M. furfur CBS 1878 = assay: Agar diffusion assay on pigment-inducing medium (p-agar) with TRP as sole nitrogen source; type: cell-based, Malassezia furfur
Protocol: The pigment-inducing medium (p-agar) is composed of (for 1 liter medium)
After autoclaving for 30 min at 1 bar, the following is added:
At approx. 50° C., the following heat-labile component is added:
The pH value is approximately pH 5.0.
Each 25 ml of the medium are poured into petri dishes with a diameter of 10 cm. A suspension of M. furfur CBS 1878 (approx. 5 inoculation loops of a strain previously grown on Dixon's agar) is suspended in 1 ml aq. dest., transferred to the p-agar and spread by tilting the plate. […] The pigment composition can be determined after extraction and separation via thin layer chromatography.
For this purpose, M. furfur CBS 1878 is spread on the surface of an agar plate with pigment-inducing medium as describe above, subsequently 4 mm-holes are punched into the agar using a sterile punch. […] The agar diffusion assay is performed with transaminase inhibitor e.g. aminooxyacetate (Sigma) in water, which is adjusted to pH 5 with 1 n NaOH. Concentrations are 0.05 molar top left; 0.1 molar top right; 0.25 molar bottom left, and 0.5 molar bottom right.

pityriasis versicolor = assay: Topical application in humans; type: in vivo
Excerpt: Transaminase inhibitors such as aminooxyacetate and/or cycloserine, e.g. D-cycloserine, DL-cycloserine, L-cycloserine or one of the derivatives thereof like e.g. terizidone are suitable for an application in humans. A topical application of 5% in unguentum emulsificans aquosum, applied over several days, is well tolerated without side effects. For prophylactic purposes, a 0.05-5% w/w preparation is used, preferably as shaking mixture/suspension cutanea aquosa, aqueous, oily, or alcoholic suspension, emulsion, paste, cream, ointment, spray, lipophilic gel, hydrophilic gel or plaster, shampoo, bath additive or mud, since the entire body should be treated if possible. For prophylaxis, application is performed daily up to several-day intervals. The same applies to the therapeutic use. D-cycloserine is preferably used in aqueous solution, e.g. 0.2 molar, adjusted to pH 7 with e.g. phosphate buffer.

M. furfur = assay: Agar diffusion assay on complete medium Dixon's agar; settings: 4 days, concentrations as in FIG. 1 (0.05-0.5 molar)
Protocol: For this purpose, an identical experimental approach as described above is chosen and the fungus is grown on a complete medium Dixon's agar for 4 days. Transaminase inhibitor, e.g. aminooxyacetate solution (e.g. Sigma) or D-cycloserine, DL-cycloserine, L-cycloserine or a derivative thereof such as e.g. terizidone, is added in above mentioned concentrations at the beginning of the experiment.

Compound	suppression of pigment formation in vitro (M. furfur CBS 1878)	suppression of pigment formation in vivo in humans (pityriasis versicolor)	further results
NC1CONC1=O (racemic) [DL-cycloserine]	comparable suppression	comparable suppression	
N[C@@H]1CONC1=O [D-cycloserine]	comparable suppression	comparable suppression	healing of lesions (pityriasis versicolor; aqueous solution 0.2 molar, pH 7 (phosphate buffer), twice a day, after three days): complete healing of lesions; side effects / tolerability (pityriasis versicolor; aqueous solution 0.2 molar, pH 7, twice a day): without side effects and is very well tolerated
N[C@H]1CONC1=O [L-cycloserine]	comparable suppression	comparable suppression	
Cl.NOCC(=O)O.NOCC(=O)O [aminooxyacetate, O-(carboxymethyl)hydroxylamine hemihydrochloride]			pigment synthesis (tryptophan-dependent pathway) (M. furfur CBS 1878; 4-days old culture, TRP as sole nitrogen source, 20 μl in 4 mm holes, 0.05, 0.1, 0.25, 0.5 molar in water, pH 5, hemihydrochloride): completely inhibited; also recorded: abolished; growth of the fungus (M. furfur CBS 1878; pigment-inducing medium, TRP as sole nitrogen source, 0.05-0.5 molar, pH 5): inhibited; effect of specific inhibition of transamination on complete medium (M. furfur): no effect
O=C1NOCC1/N=C/c1ccc(/C=N/C2CONC2=O)cc1 (stereo not drawn) [terizidone]	inhibit pigment formation		
